{"source": "patent US8333970B2", "about": "“Methods of monitoring the efficacy of anti-CD40 antibodies in treating a subject having an inflammatory or autoimmune disease” (Novartis AG, priority 2005, dated 2012)", "key": {"[1]": {"target": "soluble CD40 (Homo sapiens, UniProt P25942)", "sequence (P25942 21-193 limits assumed)": "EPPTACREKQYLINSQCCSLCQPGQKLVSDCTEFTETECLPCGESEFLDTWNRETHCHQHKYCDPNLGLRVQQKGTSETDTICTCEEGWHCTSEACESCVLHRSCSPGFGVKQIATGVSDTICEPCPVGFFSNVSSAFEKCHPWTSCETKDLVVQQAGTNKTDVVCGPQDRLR", "assay": "ELISA-type assay, binding to soluble CD40", "conditions": "ELISA-type assays", "from_the_text": "(§1) 2, 2000, and PCT International Application No. PCT/US01/30857, also titled “Human Anti-CD40 Antibodies,” filed Oct. 2, 2001, both of which are herein incorporated by reference in their entirety."}, "[2]": {"target": "cell-surface CD40 (Homo sapiens, UniProt P25942)", "sequence (P25942 21-277)": "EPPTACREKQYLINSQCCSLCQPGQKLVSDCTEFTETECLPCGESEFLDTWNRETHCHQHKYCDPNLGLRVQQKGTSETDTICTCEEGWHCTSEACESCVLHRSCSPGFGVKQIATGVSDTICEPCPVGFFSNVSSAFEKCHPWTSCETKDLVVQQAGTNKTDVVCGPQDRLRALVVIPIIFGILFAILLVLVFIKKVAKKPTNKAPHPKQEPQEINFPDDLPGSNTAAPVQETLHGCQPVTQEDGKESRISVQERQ", "assay": "Flow cytometric (FACS) assay of CD40 binding and CD40-ligand blocking", "from_the_text": "as §1"}, "[3]": {"tested_on": "normal human B cells", "assay": "Western blot of apoptosis and survival proteins in sCD40L-stimulated B cells", "format": "cell-based", "method": "In these experiments, 0.6×10^6 normal human B cells from healthy donors (percent purity between 85-95%) were stimulated with 1 μg/ml sCD40L (Alexis Corporation, Bingham, Nottinghamshire, UK). […] Cells were collected at 0, 20 minutes, 2 hours, 6 hours, 18 hours, and 26 hours. Cleaved Caspase-9, cleaved Caspase-3, cleaved PARP, and β-actin controls were detected in cell lysates by Western blot.\nIn these experiments, 0.6×10^6 normal human B cells from healthy donors (percent purity between 85-95%) were stimulated with 1 μg/ml sCD40L (Alexis Corporation, Bingham, Nottinghamshire, UK). […] Cells were collected at 0, 20 minutes, 2 hours, 6 hours, 18 hours, and 26 hours. Mcl-1, XIAP, CD40, and β-actin controls were detected in cell lysates by Western blot.\nIn these experiments, 0.6×10^6 normal human B cells from healthy donors percent purity between 85-95%) were stimulated with 1 μg/ml sCD40L (Alexis Corporation, Bingham, Nottinghamshire, UK). […] Cells were collected at 24 hours. Cleaved PARP, and β-actin controls were detected in cell lysates by Western blot.\nIn these experiments, 0.6×10^6 normal human B cells from healthy donors (percent purity between 85-95%) were stimulated with 1 μg/ml sCD40L (Alexis Corporation, Bingham, Nottinghamshire, UK). […] Cells were collected at 22 hours. Mcl-1, XIAP, cleaved PARP, and β-actin controls were detected in cell lysates by Western blot."}, "[4]": {"conditions": "1 μg/ml sCD40L, 10 μg/ml antibody, 0 to 26 hours"}, "[5]": {"conditions": "1 μg/ml sCD40L, 0.5, 2 and 10 μg/ml antibody, 22 hours"}}, "note": "“Also recorded” adds a separate entry of the source."}
{"substance": "CHIR-12.12: fully human anti-CD40 monoclonal antibody of the IgG1 isotype, hybridoma 153.8E2.D10.D6.12.12, ATCC PTA-5543, SEQ ID NO:2 and 4", "values": [{"measurement": "binding to soluble CD40", "setting": "[1]", "result": "bind soluble CD40"}, {"measurement": "specific binding to human CD40", "setting": "[2]; FACS analysis", "result": "bind specifically to human CD40"}, {"measurement": "displacement of CD40-ligand pre-bound to cell surface CD40", "setting": "[2]; flow cytometric assays", "result": "displace the pre-bound CD40-ligand; also recorded: can compete off CD40-ligand pre-bound to cell surface CD40"}, {"measurement": "prevention of CD40-ligand binding to cell-surface CD40", "setting": "[2]; flow cytometric assays", "result": "prevent the binding of CD40-ligand to cell-surface CD40; also recorded: can prevent CD40-ligand binding"}, {"measurement": "cleaved Caspase-9, cleaved Caspase-3, cleaved PARP", "setting": "[3]; [4]", "result": "increased cleavage of Caspase-9, Caspase-3, and PARP; also recorded: resulted in an increase of these cleavage products"}, {"measurement": "expression of Mcl-1 and XIAP over time", "setting": "[3]; [4]", "result": "reduction of XIAP and Mcl-1; also recorded: resulted in a decrease in expression of these proteins"}, {"measurement": "PARP cleavage", "setting": "[3]; 1 μg/ml sCD40L, 0.01-1.0 μg/ml antibody, 24 hours", "result": "increase of PARP cleavage in sCD40L stimulated cells in a dose-dependent manner"}, {"measurement": "Mcl-1 and XIAP expression", "setting": "[3]; [5]", "result": "reduced Mcl-1 and XIAP expression"}, {"measurement": "cleaved PARP expression", "setting": "[3]; [5]", "result": "increased cleaved PARP expression"}]}
